The values below come from patent US10899787B2, “Cytarabine prodrug nucleoside cyclic phosphate compound based on liverspecific delivery and use” (ZHEJIANG PALO ALTO PHARMACEUTICALS, INC., priority 2017, dated 2021).

For one series, the target named is T1, Recombinant human CYP3A4 enzyme (Homo sapiens, UniProt P08684).
T1 construct: purchased BD company lot number 3100772
T1 sequence (P08684 whole entry): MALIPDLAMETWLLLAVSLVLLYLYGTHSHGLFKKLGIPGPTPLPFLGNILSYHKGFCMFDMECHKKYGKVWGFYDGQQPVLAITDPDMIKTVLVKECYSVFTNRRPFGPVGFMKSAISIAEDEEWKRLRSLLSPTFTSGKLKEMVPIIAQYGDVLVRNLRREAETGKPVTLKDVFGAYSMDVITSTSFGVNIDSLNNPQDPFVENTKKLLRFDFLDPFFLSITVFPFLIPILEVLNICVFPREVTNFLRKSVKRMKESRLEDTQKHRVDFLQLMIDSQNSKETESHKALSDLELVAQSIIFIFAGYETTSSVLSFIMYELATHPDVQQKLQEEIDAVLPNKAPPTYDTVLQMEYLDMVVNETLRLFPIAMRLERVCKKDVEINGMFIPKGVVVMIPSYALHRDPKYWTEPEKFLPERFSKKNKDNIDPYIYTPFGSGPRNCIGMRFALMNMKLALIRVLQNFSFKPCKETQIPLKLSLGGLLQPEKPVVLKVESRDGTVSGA
Description: Evaluation of recombinant human CYP3A4 metabolism in vitro. The format is in vitro ADME. The settings on record: recombinant human CYP3A4 enzyme in vitro; ratio to PA4102 (Table 4). As for the experimental part:
Example 12 Evaluation of Recombinant Human CYP3A4 Metabolism In Vitro
Recombinant human CYP3A4 enzyme was purchased from BD company, lot number 3100772.
Test compounds PA4101, PA4102, PA4103, PA4104, PA4105, PA4106, PA4107, PA4108, PA4109, PA4110 and PA4111 were synthesized by Zhejiang Palo Alto Pharmaceuticals, Inc., and dissolved in methanol (from Sinopharm Chemical Reagent Co., Ltd.) to prepare a storage solution of a concentration of 100 μM.
Enzymatic reaction was carried out in 100 mM KH2PO4 buffer solution (pH 7.4), the concentration of the test compounds was 100 nM, the concentration of human liver microsomes was 0.1 nmol/ml, and NADPH concentration was 2 mM. The reaction was initiated by NADPH finally added, and after reaction for 1, 5, 10, 20, 30 min in a constant-temperature shaking water bath kettle, samples were taken, and 1.5 times of volume of methanol was immediately added to terminate the reaction.
3) Sample Processing and Analysis Method
The centrifugation was carried out for 20 minutes at a maximum speed of 13,600 rpm using an Eppendorf tabletop centrifuge. Supernatant was taken, and after being blow-dried by a nitrogen blower, the supernatant was re-dissolved into a mobile phase A (0.1% formic acid v/v aqueous solution).
Analytical column: Waters, Acquity UPLC HSS T3 column • Flow rate: 0.5 ml/min • Column temperature: 45° C.
III Mass Spectrometry Condition
An ion source was an electrospray ionization source (Turbo Ionspray); a positive ion mode; a capillary voltage was 3.0 kV; a temperature was 500° C.; a desolventizing airflow was 1000 L/h; and scan time, cone voltage, collision energy and ion response for quantitative analysis are shown in the following table (Table 3): […]
On to `Nc1ccn([C@@H]2O[C@H](COP3(=O)OCC[C@H](c4cc(F)ccc4Cl)O3)[C@@H](O)[C@@H]2O)c(=O)n1` (some centres unmarked) [PA4108], for which the “conversion rate relative to that of PA4102” value is roughly 7.24 times.

In the case of `Nc1ccn([C@@H]2O[C@H](COP3(=O)OCC[C@H](c4cc(Cl)ccc4Cl)O3)[C@@H](O)[C@@H]2O)c(=O)n1` (some centres unmarked) [PA4109], the “conversion rate relative to that of PA4102” value is recorded as “about 20.6 times”.

Take `Nc1ccn([C@@H]2O[C@H](COP3(=O)OCC[C@H](c4cc(Cl)ccc4F)O3)[C@@H](O)[C@@H]2O)c(=O)n1` (some centres unmarked) [PA4101]: the “conversion rate relative to that of PA4102” value is listed as roughly 10.7 times.

Staying with this series, now noted: recombinant human CYP3A4 enzyme; test compound 100 nM; NADPH 2 mM; pH 7.4; samples at 1, 5, 10, 20, 30 min.
As for `Nc1ccn([C@@H]2O[C@H](COP3(=O)OCC[C@H](c4cc(F)ccc4Cl)O3)[C@@H](O)[C@@H]2O)c(=O)n1` (some centres unmarked) [PA4108], the “Elimination Rate in vitro” value was 23.6 ml/min/gprot.

For the molecule `Nc1ccn([C@@H]2O[C@H](COP3(=O)OCC[C@H](c4ccncc4)O3)[C@@H](O)[C@@H]2O)c(=O)n1` (some centres unmarked) [PA4102, reference compound], the “Elimination Rate in vitro” value was 3.26 ml/min/gprot.

Regarding `Nc1ccn([C@@H]2O[C@H](COP3(=O)OCC[C@H](c4ccc(Cl)c(F)c4)O3)[C@@H](O)[C@@H]2O)c(=O)n1` (some centres unmarked) [PA4106], the “Elimination Rate in vitro” value is recorded as 14.9 ml/min/gprot.

For the molecule `Nc1ccn([C@@H]2O[C@H](COP3(=O)OCC[C@H](c4cc(F)cc(F)c4)O3)[C@@H](O)[C@@H]2O)c(=O)n1` (some centres unmarked) [PA4104], the “Elimination Rate in vitro” value was 2.93 ml/min/gprot.

In the case of `Nc1ccn([C@@H]2O[C@H](COP3(=O)OCC[C@H](c4cc(Cl)ccc4Cl)O3)[C@@H](O)[C@@H]2O)c(=O)n1` (some centres unmarked) [PA4109], the “Elimination Rate in vitro” value is 67.3 ml/min/gprot.

Take `Nc1ccn([C@@H]2O[C@H](COP3(=O)OCC[C@H](c4cccc(Cl)c4F)O3)[C@@H](O)[C@@H]2O)c(=O)n1` (some centres unmarked) [PA4107]: the “Elimination Rate in vitro” value came out at 8.28 ml/min/gprot.

On to `Nc1ccn([C@@H]2O[C@H](COP3(=O)OCC[C@H](c4ccc(F)c(Cl)c4)O3)[C@@H](O)[C@@H]2O)c(=O)n1` (some centres unmarked) [PA4105], for which the “Elimination Rate in vitro” value worked out at 5.79 ml/min/gprot.

For the molecule `Nc1ccn([C@@H]2O[C@H](COP3(=O)OCC[C@H](c4cc(Cl)ccc4F)O3)[C@@H](O)[C@@H]2O)c(=O)n1` (some centres unmarked) [PA4101], the “Elimination Rate in vitro” value came to 35.0 ml/min/gprot.

Regarding `Nc1ccn([C@@H]2O[C@H](COP3(=O)OCC[C@H](c4cc(F)ccc4F)O3)[C@@H](O)[C@@H]2O)c(=O)n1` (some centres unmarked) [PA4110], the “Elimination Rate in vitro” value turned out to be 8.37 ml/min/gprot.

With `Nc1ccn([C@@H]2O[C@H](COP3(=O)OCC[C@H](c4cccc(F)c4F)O3)[C@@H](O)[C@@H]2O)c(=O)n1` (some centres unmarked) [PA4111], the “Elimination Rate in vitro” value was determined as 9.55 ml/min/gprot.

As for `Nc1ccn([C@@H]2O[C@H](COP3(=O)OCC[C@H](c4cc(Cl)cc(Cl)c4)O3)[C@@H](O)[C@@H]2O)c(=O)n1` (some centres unmarked) [PA4103], the “Elimination Rate in vitro” value is listed as 23.1 ml/min/gprot.
